Test results published in ChEMBL document CHEMBL3885881, “DrugMatrix”.

Species on record: Rattus norvegicus
Assay: DrugMatrix - Regimen: Daily Repeat
Format: toxicity, organism-based, Sprague-Dawley
Set-up: regimen Daily Repeat, gender Male, age 6-8 weeks
Conditions: in vivo, po, route oral GAVAGE, vehicle 100 % WATER; for ABSOLUTE BASOPHIL / ABSOLUTE EOSINOPHIL / ABSOLUTE LYMPHOCYTE / ABSOLUTE MONOCYTE / ABSOLUTE SEGMENTED NEUTROPHIL / BASOPHIL / EOSINOPHIL / ERYTHROCYTE COUNT / HEMATOCRIT / HEMOGLOBIN / LEUKOCYTE COUNT / LYMPHOCYTE / MEAN CORPUSCULAR HEMOGLOBIN / MEAN CORPUSCULAR HEMOGLOBIN CONCENTRATION / MEAN CORPUSCULAR VOLUME / MONOCYTE / NEUTROPHIL / NUCLEATED RED BLOOD CELLS / PLATELET COUNT: tissue Blood; for ALANINE AMINOTRANSFERASE / ALBUMIN / ALKALINE PHOSPHATASE / ASPARTATE AMINOTRANSFERASE / BLOOD UREA NITROGEN / CARBON DIOXIDE / CHLORIDE / CHOLESTEROL / CREATINE PHOSPHOKINASE / CREATININE / GLUCOSE / LACTATE DEHYDROGENASE / LIPASE / PHOSPHORUS / POTASSIUM / SODIUM / TOTAL BILIRUBIN / TOTAL PROTEIN / URIC ACID: tissue Plasma
[1] = 1 mg/kg, 72 h, dose level Low, time 3 day
[2] = 1 mg/kg, 120 h, dose level Low, time 5 day
[3] = 84 mg/kg, 72 h, dose level High, time 3 day
[4] = 84 mg/kg, 120 h, dose level High, time 5 day

## Cc1nccn1CC1CCc2c(c3ccccc3n2C)C1=O (configuration not stated) [ONDANSETRON]
[1]
  ABSOLUTE BASOPHIL: 0 CELLS/uL
  ABSOLUTE EOSINOPHIL: 0 CELLS/uL
  ABSOLUTE LYMPHOCYTE: 12419.33 CELLS/uL
  ABSOLUTE MONOCYTE: 325.33 CELLS/uL
  ABSOLUTE SEGMENTED NEUTROPHIL: 1155.33 CELLS/uL
  BASOPHIL: 0%
  EOSINOPHIL: 0%
  ERYTHROCYTE COUNT: 5.53 x10E6/uL
  HEMATOCRIT: 34.87%
  HEMOGLOBIN: 13.27 G/DL
  LEUKOCYTE COUNT: 13.9 x10E3/uL
  LYMPHOCYTE: 89.33%
  MEAN CORPUSCULAR HEMOGLOBIN: 24 pg
  MEAN CORPUSCULAR HEMOGLOBIN CONCENTRATION: 38.07 G/DL
  MEAN CORPUSCULAR VOLUME: 63.03 fL
  MONOCYTE: 2.33%
  NEUTROPHIL: 8.33%
  NUCLEATED RED BLOOD CELLS: 0 /100WBC
  PLATELET COUNT: 1205.67 x10E3/uL
  ALANINE AMINOTRANSFERASE: 50.33 u/L
  ALBUMIN: 4.1 G/DL
  ALKALINE PHOSPHATASE: 392.33 u/L
  ASPARTATE AMINOTRANSFERASE: 92 u/L
  BLOOD UREA NITROGEN: 15.67 mg/dL
  CARBON DIOXIDE: 24.33 mmol/L
  CHLORIDE: 104 MEQ/L
  CHOLESTEROL: 74.33 mg/dL
  CREATINE PHOSPHOKINASE: 345 u/L
  CREATININE: 0.17 mg/dL
  GLUCOSE: 165.33 mg/dL
  LACTATE DEHYDROGENASE: 421 u/L
  LIPASE: 9.67 u/L
  PHOSPHORUS: 14.47 mg/dL
  POTASSIUM: 6.65 MEQ/L
  SODIUM: 147.47 MEQ/L
  TOTAL BILIRUBIN: 0.17 mg/dL
  TOTAL PROTEIN: 5.77 G/DL
  URIC ACID: 1.8 mg/dL
[2]
  ABSOLUTE BASOPHIL: 0 CELLS/uL
  ABSOLUTE EOSINOPHIL: 0 CELLS/uL
  ABSOLUTE LYMPHOCYTE: 15703.33 CELLS/uL
  ABSOLUTE MONOCYTE: 57.67 CELLS/uL
  ABSOLUTE SEGMENTED NEUTROPHIL: 1439 CELLS/uL
  BASOPHIL: 0%
  EOSINOPHIL: 0%
  ERYTHROCYTE COUNT: 5.66 x10E6/uL
  HEMATOCRIT: 36.67%
  HEMOGLOBIN: 14.17 G/DL
  LEUKOCYTE COUNT: 17.2 x10E3/uL
  LYMPHOCYTE: 91.33%
  MEAN CORPUSCULAR HEMOGLOBIN: 25.07 pg
  MEAN CORPUSCULAR HEMOGLOBIN CONCENTRATION: 38.6 G/DL
  MEAN CORPUSCULAR VOLUME: 64.9 fL
  MONOCYTE: 0.33%
  NEUTROPHIL: 8.33%
  NUCLEATED RED BLOOD CELLS: 0 /100WBC
  PLATELET COUNT: 1456 x10E3/uL
  ALANINE AMINOTRANSFERASE: 55 u/L
  ALBUMIN: 4.43 G/DL
  ALKALINE PHOSPHATASE: 362 u/L
  ASPARTATE AMINOTRANSFERASE: 77.33 u/L
  BLOOD UREA NITROGEN: 17 mg/dL
  CARBON DIOXIDE: 29 mmol/L
  CHLORIDE: 100.33 MEQ/L
  CHOLESTEROL: 72 mg/dL
  CREATINE PHOSPHOKINASE: 162.67 u/L
  CREATININE: 0.18 mg/dL
  GLUCOSE: 160.33 mg/dL
  LACTATE DEHYDROGENASE: 160.67 u/L
  LIPASE: 10.33 u/L
  PHOSPHORUS: 14.4 mg/dL
  POTASSIUM: 6.83 MEQ/L
  SODIUM: 146.07 MEQ/L
  TOTAL BILIRUBIN: 0.2 mg/dL
  TOTAL PROTEIN: 6.17 G/DL
  URIC ACID: 1.7 mg/dL
[3]
  ABSOLUTE BASOPHIL: 0 CELLS/uL
  ABSOLUTE EOSINOPHIL: 113.33 CELLS/uL
  ABSOLUTE LYMPHOCYTE: 15932.67 CELLS/uL
  ABSOLUTE MONOCYTE: 298.67 CELLS/uL
  ABSOLUTE SEGMENTED NEUTROPHIL: 1422 CELLS/uL
  BASOPHIL: 0%
  EOSINOPHIL: 0.67%
  ERYTHROCYTE COUNT: 5.63 x10E6/uL
  HEMATOCRIT: 35.6%
  HEMOGLOBIN: 14.17 G/DL
  LEUKOCYTE COUNT: 17.77 x10E3/uL
  LYMPHOCYTE: 90%
  MEAN CORPUSCULAR HEMOGLOBIN: 25.3 pg
  MEAN CORPUSCULAR HEMOGLOBIN CONCENTRATION: 39.83 G/DL
  MEAN CORPUSCULAR VOLUME: 63.53 fL
  MONOCYTE: 1.67%
  NEUTROPHIL: 7.67%
  NUCLEATED RED BLOOD CELLS: 0 /100WBC
  PLATELET COUNT: 1296 x10E3/uL
  ALANINE AMINOTRANSFERASE: 62.67 u/L
  ALBUMIN: 4.27 G/DL
  ALKALINE PHOSPHATASE: 366.67 u/L
  ASPARTATE AMINOTRANSFERASE: 100.67 u/L
  BLOOD UREA NITROGEN: 14.67 mg/dL
  CARBON DIOXIDE: 26.67 mmol/L
  CHLORIDE: 101.33 MEQ/L
  CHOLESTEROL: 73.67 mg/dL
  CREATINE PHOSPHOKINASE: 312.67 u/L
  CREATININE: 0.28 mg/dL
  GLUCOSE: 150 mg/dL
  LACTATE DEHYDROGENASE: 488.67 u/L
  LIPASE: 9.67 u/L
  PHOSPHORUS: 13.83 mg/dL
  POTASSIUM: 7.1 MEQ/L
  SODIUM: 145.17 MEQ/L
  TOTAL BILIRUBIN: 0.17 mg/dL
  TOTAL PROTEIN: 5.87 G/DL
  URIC ACID: 1.77 mg/dL
[4]
  ABSOLUTE BASOPHIL: 0 CELLS/uL
  ABSOLUTE EOSINOPHIL: 0 CELLS/uL
  ABSOLUTE LYMPHOCYTE: 12972 CELLS/uL
  ABSOLUTE MONOCYTE: 0 CELLS/uL
  ABSOLUTE SEGMENTED NEUTROPHIL: 828 CELLS/uL
  BASOPHIL: 0%
  EOSINOPHIL: 0%
  ERYTHROCYTE COUNT: 5.39 x10E6/uL
  HEMATOCRIT: 33.4%
  HEMOGLOBIN: 13.9 G/DL
  LEUKOCYTE COUNT: 13.8 x10E3/uL
  LYMPHOCYTE: 94%
  MEAN CORPUSCULAR HEMOGLOBIN: 25.8 pg
  MEAN CORPUSCULAR HEMOGLOBIN CONCENTRATION: 41.6 G/DL
  MEAN CORPUSCULAR VOLUME: 61.9 fL
  MONOCYTE: 0%
  NEUTROPHIL: 6%
  NUCLEATED RED BLOOD CELLS: 0 /100WBC
  PLATELET COUNT: 1460 x10E3/uL
  ALANINE AMINOTRANSFERASE: 63 u/L
  ALBUMIN: 4.2 G/DL
  ALKALINE PHOSPHATASE: 265 u/L
  ASPARTATE AMINOTRANSFERASE: 62 u/L
  BLOOD UREA NITROGEN: 20 mg/dL
  CARBON DIOXIDE: 30 mmol/L
  CHLORIDE: 103 MEQ/L
  CHOLESTEROL: 69 mg/dL
  CREATINE PHOSPHOKINASE: 151 u/L
  CREATININE: 0.29 mg/dL
  GLUCOSE: 150 mg/dL
  LACTATE DEHYDROGENASE: 89 u/L
  LIPASE: 10 u/L
  PHOSPHORUS: 11.8 mg/dL
  POTASSIUM: 6.81 MEQ/L
  SODIUM: 145.9 MEQ/L
  TOTAL BILIRUBIN: 0.1 mg/dL
  TOTAL PROTEIN: 6.2 G/DL
  URIC ACID: 1.4 mg/dL
